Measurements: patent US20250034109A1, “SALTS, COCRYSTALS, PHARMACEUTICAL COMPOSITIONS THEREOF, AND METHODS OF TREATMENT INVOLVING THE SAME” (Servier Pharmaceuticals LLC, priority 2023, published 2025)

Key:
[1] = Solubility of the drug substance (general statement); assay type: physicochemical
[2] = system: mutant IDH1; settings: biochemical and cellular assays; cited from earlier work
[3] = system: mutant IDH2; settings: biochemical and cellular assays; cited from earlier work

## C[C@@H](Nc1nc(N[C@H](C)C(F)(F)F)nc(-c2cccc(Cl)n2)n1)C(F)(F)F [Compound 1, 6-(6-chloropyridin-2-yl)-N^2,N^4-bis((R)-1,1,1-trifluoropropan-2-yl)-1,3,5-triazine-2,4-diamine]
[1]
  solubility: poorly soluble
[2]
  inhibitor of mutant IDH1 protein: inhibitor
[3]
  inhibitor of mutant IDH2 protein: inhibitor
